Assay results reported in patent US8729053B2, “Nuclear factor kappa B pathway inhibitor composition and use of same” (The United States of America, as represented by the …, priority 2008, dated 2014).
Structures can show the parent of a compound that is named as a salt.

How the values were obtained:
NFκB = NFκB luciferase reporter assay in HEK293 cells; assay type: cell-based
Procedure: All expression plasmids were transiently transfected into HEK293 cells in a 96-well plate (0.1 μg/well) by using Effectene transfection reagent (Qiagen, Valencia, Calif.) according to the manufacturer's manual. HEK293 cells were maintained in Dulbecco's modified Eagle medium (Sigma, St. Louis, Mo.) supplemented with 10% fetal bovine serum (Atlanta Biologicals, Lawrenceville, Ga.) and incubated at 37° C. in a 5% CO2 incubator. After 24 hrs incubation, the medium was changed to DMEM with 0.2% FBS, and the transfectants were exposed to various concentrations of compound I and TPA (10 ng/ml). Cells were lysed with passive lysis buffer and the luciferase assay was performed using the Firefly-Luciferase reporter assay system (Promega, Madison, Wis.) and MLX Luminometer (Dynex Technology, Chantilly, Va.).
Three different luciferase reporter genes, AP-1 reporter containing four times TRE consensus originated from GCN4 and SRE reporter purchased from Stratagene (La Jolla, Calif.) respectively are as described previously (Suzukawa et al., Environ. Health Perspect., 2002, 110, 865-70). NFκB reporter is driven by five times NFκB responsive element inserted into Cis-reporter backbone (Stratagene, La Jolla, Calif.). Others include mouse COX-2 promoter region from −203 to +70 relative to the transcription site inserted into pTIS10L vector (Kim and Fischer, J. Biol. Chem., 1998, 273, 27686-94), human uPAR promoter region from −141 to +47 relative to transcription start site in pGL3 vector (Wang et al., Eur. J. Biochem., 2000, 267, 3248-54), and human VEGF promoter sequence from −2274 to +379 inserted into the pGL2 vector (Ding et al., J. Biol. Chem., 2006, 281, 9093-100).
To evaluate whether the compound I biological activity can imitate TAM67 specificity, three different transcriptional promoter reporters were used, AP-1, NFκB, and SRE (Serum response element) in luciferase reporter assays (FIG. 1A: The transfected cells were pre-treated with varied concentrations of compound I or DMSO for 1 hour before 18 hours stimulation by TPA (10 ng/ml) or DMSO as vehicle. An asterisk (*) indicates a separate experiment with NFκB dependent luciferase only. Assays were performed with two independent experiments each in quadruplicate.). All three activities were induced by TPA but only induction of AP-I and NFκB were inhibited by TAM67. The SRE reporter was used as a specificity control and indicator of cell proliferation. TPA-induced SRE activity was not repressed by TAM67 when coexpressed with the SRE-Luc reporter in HEK293 cells. The same concentration (10 ng/ml, 16.2 nM) and incubation time (18 hrs) were used for TPA induction as previously used for the high throughput screen (HTS) (Ruocco et al., J. Biomol. Screen., 2007, 12, 133-9) along with 1 h pretreatment of compound I. The screening results had tested concentrations as high as 40 μM compound I with cell numbers showing 95.5+/−6.2% of DMSO control (ave+/− sd, n=3) by the XTT assay in HEK293T cells.

IL-6 mRNA = assay: Quantitative RT-PCR of endogenous IL-6 mRNA in HEK293 cells; assay type: cell-based, human; conditions: concentrations as low as 2.1 μM, 1 hour pretreatment, TPA 18 hours, normalized by GAPDH
Procedure: Total RNA was isolated from HEK293 cells after pretreatment with varying compound I and/or TPA stimulation by ToTALLY RNA kit (Ambion, Austin, Tex.), and first-strand cDNA was synthesized from 1 μg of the isolated total RNA using the SuperScript III First-Strand Synthesis System (Invitrogen, Carlsbad, Calif.) with random hexamers, oligonucleotide primers. cDNA was purified by QIAquick PCR purification kit (Qiagen, Valencia, Calif.) according to the manufacturer's manual. Real-time PCR was performed with iQ SYBR Green Supermix (Bio-Rad, Hercules, Calif.) by iQ5 Multicolor RT-PCR detection system (Bio-Rad, Hercules, Calif.). Primers for endogenous human IL-6 were designed by Primer 3 program (http://frodo.wi.mit.edu/). Human glyceraldehyde-3-phosphate dehydrogenase (hGAPDH) was used as a control. The sequences for RT-PCR are as follows:
Inhibition of NFκB transactivation would be expected to result in suppressed expression of genes whose transcription depends on NFκB. Quantitative RT-PCR was used to measure endogenous levels of IL-6 mRNA, transcribed from a gene whose transcription depends on NFκB but not AP-1. […] Plasmids expressing luciferase reporters were driven by promoters for COX-2, uPAR (urokinase-type plasminogen activator receptor), or VEGF. […]

- IC50 (NFκB; Homo sapiens, HEK293, 1 h pretreatment, TPA 10 ng/ml 18 hrs, read-out: IC50 against TPA-induced NFκB reporter): ~4 µM
SMILES: Cc1cc(N)ccc1N=Nc1ccc(S(=O)(=O)CCOS(=O)(=O)O)cc1 [compound I, 2-(4-((4-amino-2-methylphenyl)diazenyl)phenylsulfonyl)ethyl hydrogen sulfate]
- Inhibition of TPA-induced NFκB luciferase activity (NFκB; HEK293, TPA 10 ng/ml, compound I at all concentrations tested): dose-dependently inhibited
- Inhibition of NFκB induced by TNFα (NFκB; TNFα induction): dose-dependent inhibition
- TPA-induced NFκB luciferase activity (NFκB; compound at 17.0 μM): completely blocked to the non-induced level
- Transcriptional activation of NFκB dependent genes (NFκB; concentrations as low as 1.1 μM): repressed
- Basal NFκB luciferase activity (NFκB; without TPA induction): inhibited, but to a lesser extent
- Part of TPA induction of IL-6 mRNA prevented (IL-6 mRNA): more than half
